From patent US20260297092A1, “PYRAZOLOPYRIMIDINE DERIVATIVES AS INHIBITORS OF NLRP3” (Takeda Pharmaceutical Company Limited, priority 2023, published 2026) come the findings set out here.

Structures are written as SMILES.

The first assay deals with NLRP3 inflammasome (IL-1β production in THP-1 cells). As to the kind of experiment: IL-1β TR-FRET Assay (percentage of inhibition at 300 nM, 6 μM or 10 μM). The note with it: Homo sapiens, THP-1, 300 nM, LPS priming, ATP activation, read-out: IL-1β inhibitory rate at 300 nM (%). Format: cell-based, human. How it is done:
The biological activity of the compound of Formula 1 with respect to NLRP3 was determined using the following in vitro method.
IL-1β TR-FRET Assay (reported as percentage of inhibition at 300 nM, 6 μM or 10 μM)
Monocytic THP-1 cells (ATCC: TIB-202) were maintained in accordance with the provider's instructions in RPMI media (Life Technologies, Cat #A10491-01); RPMI was supplemented with 10% heat inactivated fetal bovine serum (Corning, Cat #35-010-CV). The cells were differentiated into macrophages by the addition of 25 ng/mL IFN-γ (PeproTech, Cat #AF-300-02-100UG) for 24 hours at 37° C./5% CO2. Media was exchanged with fresh media with no FBS, and the cells were treated with 50 ng/mL LPS (priming step) (LPS-EK: Invivogen, Cat #tlrl-peklps). The cells were plated at 20,000 cells per well in 384-well flat-bottom cell culture plates (FALCON, Cat #353962) and were incubated for 24 hours at 37° C./5% CO2. Compounds were serially diluted (half log or 5-fold dilutions) with DMSO and were finally diluted with Media with no FBS. The compounds were added to the cells in 384-well plates (added in 1:3) and then the plates were incubated for 30 minutes at 37° C./5% CO2. The NLRP3 inflammasome was activated with the addition of 20 mM ATP (Sigma Cat #A3377-25G) and the cells were incubated for 2 hours at 37° C./5% CO2. At the end of the incubation period, 30 μL supernatant was transferred to another 384-well plate and mixed on a plate shaker for 1 minute. The supernatant was mixed with HTRF Antibody (Human IL1 beta kit, Cisbio, 62HIL1BPEH) in assay plates (Greiner Bio-One, Cat #784075) and the assay plates were incubated in shading box at room temperature for 16-24 hours. HTRF signal was measured by EnVision (Perkinelmer) in accordance with the manufacturer's instructions.
The percentage of inhibition at 300 nM, 6 μM or 10 μM in the IL-1βTR-FRET assay was calculated by the following formula: Percentage of inhibition=[1−(HTRF signaltest−HTRF signalLow)/(HTRF signalHigh−HTRF signalLow)]*100, where HTRF signaltest is the HTRF signal in the well to which test compound is added, HTRF signalLow is the HTRF signal in the well to which 3 μM MCC-950 is added, and the HTRF signalHigh is the HTRF signal in the well to which DMSO is added.
As for `Cc1cc(C2CC2)cc(C)c1-n1cc2c(=O)[nH]c(C(C)(C)O)nc2n1` [Example 172, 2-(4-cyclopropyl-2,6-dimethylphenyl)-6-(2-hydroxypropan-2-yl)-2,5-dihydro-4H-pyrazolo[3,4-d]pyrimidin-4-one], the inhibition at 0.3 µM came to 61%. On the same count and under the same terms, the value for `COc1nc2nn(-c3c(OC)cc(C4CC4)cc3C(F)F)cc2c(=O)[nH]1` [Example 169, 2-[4-cyclopropyl-2-(difluoromethyl)-6-methoxyphenyl]-6-methoxy-2,5-dihydro-4H-pyrazolo[3,4-d]pyrimidin-4-one] was 103%; that for `CCOc1nc2nn(-c3c(F)cc(C4(F)CC4)cc3Br)cc2c(=O)[nH]1` [Example 178, 2-[2-bromo-6-fluoro-4-(1-fluorocyclopropyl)phenyl]-6-ethoxy-2,5-dihydro-4H-pyrazolo[3,4-d]pyrimidin-4-one] was 101%. Still for that read-out and setting: the value for `CCOc1nc2nn(-c3ccc(C4(F)CC4)cc3F)cc2c(=O)[nH]1` [Example 183, 6-ethoxy-2-[2-fluoro-4-(1-fluorocyclopropyl)phenyl]-2,5-dihydro-4H-pyrazolo[3,4-d]pyrimidin-4-one] was 96%; that for `Cc1cc(C2CC2)cc(C)c1-n1cc2c(=O)[nH]c(CC(C)(C)O)nc2n1` [Example 181, 2-(4-cyclopropyl-2,6-dimethylphenyl)-6-(2-hydroxy-2-methylpropyl)-2,5-dihydro-4H-pyrazolo[3,4-d]pyrimidin-4-one] was 103%; that for `Cc1cc(C2CC2)cc(C)c1-n1cc2c(=O)[nH]c(C3CCCO3)nc2n1` (racemic) [Example 223, 2-(4-cyclopropyl-2,6-dimethylphenyl)-6-(oxolan-2-yl)-2,5-dihydro-4H-pyrazolo[3,4-d]pyrimidin-4-one] was 100%. With `CCOc1nc2nn(-c3c(F)cc(C4CC4)cc3C(O)C(F)F)cc2c(=O)[nH]1` (racemic) [Example 177, 2-[4-cyclopropyl-2-(2,2-difluoro-1-hydroxyethyl)-6-fluorophenyl]-6-ethoxy-2,5-dihydro-4H-pyrazolo[3,4-d]pyrimidin-4-one], the inhibition at 0.3 µM is 108%.

On to `CCOc1nc2nn(-c3c(F)cc(C4CC4)cc3CC(F)(F)F)cc2c(=O)[nH]1` [Example 206, 2-[4-cyclopropyl-2-fluoro-6-(2,2,2-trifluoroethyl)phenyl]-6-ethoxy-2,5-dihydro-4H-pyrazolo[3,4-d]pyrimidin-4-one], for which the inhibition at 0.3 µM came out at 97%. On to `Cc1cc(C2CC2)cc(C)c1-n1cc2c(=O)[nH]c(COCC(F)F)nc2n1` [Example 212, 2-(4-cyclopropyl-2,6-dimethylphenyl)-6-[(2,2-difluoroethoxy)methyl]-2,5-dihydro-4H-pyrazolo[3,4-d]pyrimidin-4-one], for which the inhibition at 0.3 µM was determined as 103%. Regarding `CCOc1nc2nn(-c3c(C)cc(C4CC4)nc3C)cc2c(=O)[nH]1` [Example 174, 2-(6-cyclopropyl-2,4-dimethylpyridin-3-yl)-6-ethoxy-2,5-dihydro-4H-pyrazolo[3,4-d]pyrimidin-4-one], the inhibition at 0.3 µM came out at 108%.

With `Cc1ccc(-n2cc3c(=O)[nH]c(OCCCC(F)(F)F)nc3n2)c(C)c1` [Example 196, 2-(2,4-dimethylphenyl)-6-(4,4,4-trifluorobutoxy)-2,5-dihydro-4H-pyrazolo[3,4-d]pyrimidin-4-one], the inhibition at 0.3 µM came to 55%. With `Cc1cc(Br)cc(C)c1-n1cc2c(=O)[nH]c(-c3ccncn3)nc2n1` [Example 185, 2-(4-bromo-2,6-dimethylphenyl)-6-(pyrimidin-4-yl)-2,5-dihydro-4H-pyrazolo[3,4-d]pyrimidin-4-one], the inhibition at 0.3 µM is 114%.

Still in this assay, the particulars now being: Homo sapiens, THP-1, 6 μM, LPS priming, ATP activation, read-out: IL-1β inhibitory rate at 6 μM (%).
Consider `COCc1nc2nn(-c3c(C)cc(C4CC4)cc3CC(F)F)cc2c(=O)[nH]1` [Example 323, 2-[4-cyclopropyl-2-(2,2-difluoroethyl)-6-methylphenyl]-6-(methoxymethyl)-2,5-dihydro-4H-pyrazolo[3,4-d]pyrimidin-4-one], for which the inhibition at 6 µM stood at 103%.

Regarding `CCOC(Cc1nc2nn(-c3c(C)cc(C4CC4)cc3C)cc2c(=O)[nH]1)OCC` [Example 234, 2-(4-cyclopropyl-2,6-dimethylphenyl)-6-(2,2-diethoxyethyl)-2,5-dihydro-4H-pyrazolo[3,4-d]pyrimidin-4-one], the inhibition at 6 µM was 90%. Still for that read-out and setting: the value for `Cc1cc(C2CC2)cc(C)c1-n1cc2c(=O)[nH]c(C3(C#N)CC3)nc2n1` [Example 318, 1-[2-(4-cyclopropyl-2,6-dimethylphenyl)-4-oxo-4,5-dihydro-2H-pyrazolo[3,4-d]pyrimidin-6-yl]cyclopropane-1-carbonitrile] was 98%; that for `COCc1nc2nn(-c3c(C(F)F)cc(C4CC4)c(C4CC4)c3C)cc2c(=O)[nH]1` [Example 320, 2-[3,4-dicyclopropyl-6-(difluoromethyl)-2-methylphenyl)-6-(methoxymethyl)-2,5-dihydro-4H-pyrazolo[3,4-d]pyrimidin-4-one] was 94%; that for `CO[C@H]1C[C@@H](c2nc3nn(-c4c(C)cc(C5CC5)cc4C)cc3c(=O)[nH]2)C1` [Example 248, 2-(4-cyclopropyl-2,6-dimethylphenyl)-6-[(1s,3s)-3-methoxycyclobutyl]-2,5-dihydro-4H-pyrazolo[3,4-d]pyrimidin-4-one] was 100%.

As to `COc1nc2nn(-c3c(F)cc(C4CC4)cc3CC(F)F)cc2c(=O)[nH]1` [Example 309, 2-[4-cyclopropyl-2-(2,2-difluoroethyl)-6-fluorophenyl]-6-methoxy-2,5-dihydro-4H-pyrazolo [3,4-d]pyrimidin-4-one], the inhibition at 6 µM was 99%. Still for that read-out and setting: the value for `CCc1nc2nn(-c3ccc(C4CC4)c(C(F)F)c3F)cc2c(=O)[nH]1` [Example 281, 2-[4-cyclopropyl-3-(difluoromethyl)-2-fluorophenyl]-6-ethyl-2,5-dihydro-4H-pyrazolo[3,4-d]pyrimidin-4-one] was 98%.

As for `O=c1[nH]c(COC(F)F)nc2nn(-c3ccc([N+](=O)[O-])cc3C(F)F)cc12` [Example 256, 6-[(difluoromethoxy)methyl]-2-[2-(difluoromethyl)-4-nitrophenyl]-2,5-dihydro-4H-pyrazolo [3,4-d]pyrimidin-4-one], the inhibition at 6 µM stood at 89%. Take `O=c1[nH]c(C2COCCO2)nc2nn(-c3c(F)cc(C4CC4)cc3C(F)F)cc12` (racemic) [Example 305, 2-[4-cyclopropyl-2-(difluoromethyl)-6-fluorophenyl]-6-(1,4-dioxan-2-yl)-2,5-dihydro-4H-pyrazolo[3,4-d]pyrimidin-4-one]: the inhibition at 6 µM came out at 103%. The same measure, in the same setting: the value for `CCOc1c(-n2cc3c(=O)[nH]c(CC)nc3n2)ccc(C2CC2)c1C(F)F` [Example 282, 2-[4-cyclopropyl-3-(difluoromethyl)-2-ethoxyphenyl]-6-ethyl-2,5-dihydro-4H-pyrazolo[3,4-d]pyrimidin-4-one] was 55%; that for `O=c1[nH]c(COC(F)F)nc2nn(-c3ccc(C4CC4)cc3C(F)F)cc12` [Example 271, 2-[4-cyclopropyl-2-(difluoromethyl)phenyl]-6-[(difluoromethoxy)methyl]-2,5-dihydro-4H-pyrazolo[3,4-d]pyrimidin-4-one] was 102%. As to `Cc1cc(C2CC2)cc(C)c1-n1cc2c(=O)[nH]c([C@]3(F)CCOC3)nc2n1` [Example 290, 2-(4-cyclopropyl-2,6-dimethylphenyl)-6-[(3S)-3-fluorooxolan-3-yl]-2,5-dihydro-4H-pyrazolo[3,4-d]pyrimidin-4-one or 2-(4-cyclopropyl-2,6-dimethylphenyl)-6-[(3R)-3-fluorooxolan-3-yl]-2,5-dihydro-4H-pyrazolo[3,4-d]pyrimidin-4-one], the inhibition at 6 µM was found to be 99%.

In the case of `CO[C@H]1C[C@H](Oc2nc3nn(-c4ccc(C)cc4C)cc3c(=O)[nH]2)C1` [Example 244, 2-(2,4-dimethylphenyl)-6-{[(1r,3r)-3-methoxycyclobutyl]oxy}-2,5-dihydro-4H-pyrazolo[3,4-d]pyrimidin-4-one], the inhibition at 6 µM came to 100%. As to `CCCc1nc2nn(-c3c(C)cc(C4CC4)cc3C)cc2c(=O)[nH]1` [Example 240, 2-(4-cyclopropyl-2,6-dimethylphenyl)-6-propyl-2,5-dihydro-4H-pyrazolo[3,4-d]pyrimidin-4-one], the inhibition at 6 µM came out at 101%.
